Legend:
Assay type in all cases: cell-based
[1] = tested on: IL-1β cytokine output from THP-1s; assay: THP-1 AlphaLISA IL-1β cytokine assay (differentiated THP-1 cells, LPS then nigericin); conditions: 30 min pre-incubation, LPS 24 hr, nigericin 1 hour
Experimental: (§1) Measuring Inhibitory Effects on IL-1β and IL-6 Cytokine Output from THP-1s
(§2) The cytokine inhibition profiles of compounds of formula (I) were determined in a differentiated THP-1 cell assay. All assays were performed in RPMI-1640 growth medium (Gibco), supplemented with 10% fetal bovine serum (FBS; Gibco), 1% penicillin-streptomycin and 1% sodium pyruvate unless specified otherwise. The IL-1β and IL-6 cytokine inhibition assays were each run in a background of differentiated THP-1 cells as described below. All reagents described were from Sigma-Aldrich unless specified otherwise. Compounds were prepared as 10 mM DMSO stocks.
(§3) THP-1 cells were expanded as a suspension up to 80% confluence in appropriate growth medium. Cells were harvested, suspended, and treated with an appropriate concentration of phorbol 12-myristate 13-acetate (PMA) over a 72 hr period (37° C./5% CO2).
(§4) Following 72 hrs of THP-1 cell incubation, cellular medium was removed and replaced with fresh growth media containing 1% of FBS. Working concentrations of compounds were prepared separately in 10% FBS treated growth medium and pre-incubated with the cells for 30 minutes (37° C./5% CO2). Following the 30 minute compound pre-incubation, THP-1s were treated with an appropriate concentration of LPS and the THP-1s were subsequently incubated for a 24 hr period (37° C./5% CO2). An appropriate final concentration of Nigericin was then dispensed into the THP-1 plates and incubated for 1 hour (37° C./5% CO2) before THP-1 supernatants were harvested and collected in separate polypropylene 96-well holding plates.
(§5) Reagents from each of the IL-1β and IL-6 commercial kits (Perkin Elmer) were prepared and run according to the manufacturer's instructions. Subsequently, fluorescence signal detection in a microplate reader was measured (EnVision® Multilabel Reader, Perkin Elmer).
(§6) Percentage inhibition was calculated per cytokine by normalizing the sample data to the high and low controls used within each plate (+/−LPS respectively).

[2] = tested on: NRF2 (nuclear factor erythroid 2-related factor 2); assay: NRF2 activation assay (DiscoverX PathHunter NRF2 translocation kit, U2OS cells); conditions: for Emax / EC50: Homo sapiens; for Emax: U2OS; for EC50: U2OS PathHunter cells, 6 hours
[3] = tested on: IL-6 cytokine output from THP-1s; assay: THP-1 AlphaLISA IL-6 cytokine assay (differentiated THP-1 cells, LPS then nigericin); conditions: 30 min pre-incubation, LPS 24 hr, nigericin 1 hour
Experimental: as §1, §2, §3, §4, §5, §6

[4] = +GSH, normalised to dimethyl fumarate high control
[5] = −GSH, normalised to dimethyl fumarate high control
[6] = +GSH (30 minute compound/GSH pre-incubation)

Row | SMILES | IC50 ([1]; Homo sapiens) [µM] | IC50 ([3]; Homo sapiens) [µM] | other results
1 | C=C(Cc1ccccc1Cl)C(=O)O [2-(2-chlorobenzyl)acrylic acid, reference compound] | > 100 |  | Emax [2, 4]: 9%; Emax [2, 5]: 2%; EC50 [2, 6]: > 100 µM; EC50 ([2]; −GSH): > 100 µM
2 | C=C(CC(=O)OCCCCCCCC)C(=O)O [4-octyl itaconate, reference compound] |  |  | IC50 [1]: 39.8 µM; IC50 [3]: 21.1 µM; NRF2 activation Emax, +GSH [2, 4]: 148%; NRF2 activation Emax, −GSH [2, 5]: 165%
3 | C=C(Cc1nc(C2(c3ccc(SC(F)(F)F)cc3)CC2)no1)C(=O)Nc1ncc(C)s1 [Example 1, N-(5-methylthiazol-2-yl)-2-((3-(1-(4-((trifluoromethyl)thio)phenyl)cyclopropyl)-1,2,4-oxadiazol-5-yl)methyl)acrylamide] | 1 | 0.9 | 
4 | C=C(Cc1nc(C2(c3ccc(SC(F)(F)F)cc3)CC2)no1)C(=O)Nc1cnccn1 [Example 2, N-(pyrazin-2-yl)-2-((3-(1-(4-((trifluoromethyl)thio)phenyl)cyclopropyl)-1,2,4-oxadiazol-5-yl)methyl)acrylamide] | 0.4 | 0.6 | Emax [2, 4]: 79%; Emax [2, 5]: 117%; EC50 [2, 6]: 5.2 µM; EC50 ([2]; −GSH): 0.9 µM
5 | C=C(Cc1nc(Cc2ccc(CCCC)cc2)no1)C(=O)Nc1ccccn1 [Example 3, 2-((3-(4-butylbenzyl)-1,2,4-oxadiazol-5-yl)methyl)-N-(pyridin-2-yl)acrylamide] | 4.5 |  | 
6 | C=C(Cc1nc(Cc2ccc(CCCC)cc2)no1)C(=O)Nc1cnccn1 [Example 4, 2-((3-(4-butylbenzyl)-1,2,4-oxadiazol-5-yl)methyl)-N-(pyrazin-2-yl)acrylamide] | 1.1 |  | 
7 | C=C(Cc1nc(Cc2ccc(CCCC)cc2)no1)C(=O)Nc1ncc(C)s1 [Example 5, 2-((3-(4-butylbenzyl)-1,2,4-oxadiazol-5-yl)methyl)-N-(5-methylthiazol-2-yl)acrylamide] | 1.9 |  | 
8 | C=C(CC(=O)OC(C)(C)CCCCCC)C(=O)Nc1cnccn1 [Example 6, 2-methyloctan-2-yl 3-(pyrazin-2-ylcarbamoyl)but-3-enoate] | 3.8 | 2.1 | 
9 | C=C(CC(=O)OC1(c2ccc(C(F)(F)F)cc2)CCC1)C(=O)NC [Example 7, 1-(4-(trifluoromethyl)phenyl)cyclobutyl 3-(methylcarbamoyl)but-3-enoate] | 20.5 | 12.1 | Emax [2, 4]: 27%; Emax [2, 5]: 119%; EC50 [2, 6]: > 100 µM; EC50 ([2]; −GSH): 12.6 µM
10 | C=C(CC(=O)OC1(c2ccc(C(F)(F)F)cc2)CCC1)C(N)=O [Example 8, 1-(4-(trifluoromethyl)phenyl)cyclobutyl 3-carbamoylbut-3-enoate] | 34.3 | 13.9 | Emax [2, 4]: 7%; Emax [2, 5]: 21%; EC50 [2, 6]: > 100 µM; EC50 ([2]; −GSH): > 100 µM
11 | C=C(CC(=O)O[C@@H](C)c1ccc(C(F)(F)F)cc1)C(N)=O [Example 9, (S)-1-(4-(trifluoromethyl)phenyl)ethyl 3-carbamoylbut-3-enoate] | 10 | 4.5 | Emax [2, 4]: 26%; Emax [2, 5]: 110%; EC50 [2, 6]: > 100 µM; EC50 ([2]; −GSH): 13.7 µM
12 | C=C(CC(=O)O[C@@H](C)c1ccc(C(F)(F)F)cc1)C(=O)NC [Example 10, (S)-1-(4-(trifluoromethyl)phenyl)ethyl 3-(methylcarbamoyl)but-3-enoate] | 10.5 | 3.5 | 
13 | C=C(CC(=O)O[C@H](C)c1ccc(C(F)(F)F)cc1)C(=O)NC [Example 11, (R)-1-(4-(trifluoromethyl)phenyl)ethyl 3-(methylcarbamoyl)but-3-enoate] | 3.3 | 1.9 | 
14 | C=C(CC(=O)O[C@H](C)c1ccc(C(F)(F)F)cc1)C(N)=O [Example 12, (R)-1-(4-(trifluoromethyl)phenyl)ethyl 3-carbamoylbut-3-enoate] | 20 | 14.4 | 
15 | C=C(CC(=O)OC1(c2ccc(C(F)(F)F)cc2)COC1)C(=O)NC [Example 13, 3-(4-(trifluoromethyl)phenyl)oxetan-3-yl 3-(methylcarbamoyl)but-3-enoate] | 17.5 | 2.6 | 
16 | C=C(CC(=O)OC1(c2ccc(C(F)(F)F)cc2)COC1)C(N)=O [Example 14, 3-(4-(trifluoromethyl)phenyl)oxetan-3-yl 3-carbamoylbut-3-enoate] | 6.5 | 4.4 | 
17 | C=C(CC(=O)OC1(c2ccc(C(F)(F)F)cn2)COC1)C(=O)NC [Example 15, 3-(5-(trifluoromethyl)pyridin-2-yl)oxetan-3-yl 3-(methylcarbamoyl)but-3-enoate] | 13.1 | 10.9 | 
18 | C=C(CC(=O)OC1(c2ccc(C(F)(F)F)cn2)COC1)C(N)=O [Example 16, 3-(5-(trifluoromethyl)pyridin-2-yl)oxetan-3-yl 3-carbamoylbut-3-enoate] | 8.6 | 4.6 | 
19 | C=C(CC(=O)OC1(c2ccc(C(F)(F)F)cn2)CCC1)C(=O)NC [Example 17, 1-(5-(trifluoromethyl)pyridin-2-yl)cyclobutyl 3-(methylcarbamoyl)but-3-enoate] | 14.4 | 4.8 | 
20 | C=C(CC(=O)OC1(c2ccc(C(F)(F)F)cn2)CCC1)C(N)=O [Example 18, 1-(5-(trifluoromethyl)pyridin-2-yl)cyclobutyl 3-carbamoylbut-3-enoate] | 9.3 | 14.4 | 
21 | C=C(CC(=O)OC1(c2cc(Cl)cc(Cl)c2)CCC1)C(=O)NC [Example 19, 1-(3,5-dichlorophenyl)cyclobutyl 3-(methylcarbamoyl)but-3-enoate] | 17.5 | 3.3 | 
22 | C=C(CC(=O)OC1(c2cc(Cl)cc(Cl)c2)CCC1)C(N)=O [Example 20, 1-(3,5-dichlorophenyl)cyclobutyl 3-carbamoylbut-3-enoate] | 13.2 | 8.3 | Emax [2, 4]: 28%; Emax [2, 5]: 156%; EC50 [2, 6]: > 100 µM; EC50 ([2]; −GSH): 35.2 µM
23 | C=C(CC(=O)OC1(c2ccc(C(F)(F)F)c(F)c2)CCC1)C(N)=O [Example 21, 1-(3-fluoro-4-(trifluoromethyl)phenyl)cyclobutyl 3-carbamoylbut-3-enoate] | 15.4 | 6.9 | 
24 | C=C(CC(=O)OC1(c2ccc(C(F)(F)F)c(F)c2)CCC1)C(=O)NC [Example 22, 1-(3-fluoro-4-(trifluoromethyl)phenyl)cyclobutyl 3-(methylcarbamoyl)but-3-enoate] | 11 | 9.4 | Emax [2, 4]: 48%; Emax [2, 5]: 109%; EC50 [2, 6]: > 100 µM; EC50 ([2]; −GSH): 14.5 µM
25 | C=C(CC(=O)OC1(c2ccc(C(F)(F)F)cc2)CCC1)C(=O)NC1CCN(C)CC1 [Example 23, 1-(4-(trifluoromethyl)phenyl)cyclobutyl 3-((1-methylpiperidin-4-yl)carbamoyl)but-3-enoate] | > 31.6 | 24.1 | 
26 | C=C(CC(=O)OC1(c2ccc(C(F)(F)F)cc2)CCC1)C(=O)NCCN1CCOCC1 [Example 24, 1-(4-(trifluoromethyl)phenyl)cyclobutyl 3-((2-morpholinoethyl)carbamoyl)but-3-enoate] | 8.6 | 6.8 | 
27 | C=C(CC(=O)OC1(c2ccc(C(F)(F)F)cc2)CCC1)C(=O)NC1CS(=O)(=O)C1 [Example 25, 1-(4-(trifluoromethyl)phenyl)cyclobutyl 3-((1,1-dioxidothietan-3-yl)carbamoyl)but-3-enoate] | 19.9 | 9.5 | 
28 | C=C(CC(=O)OC1(c2ccc(C(F)(F)F)cc2)CCC1)C(=O)NCCS(C)(=O)=O [Example 26, 1-(4-(trifluoromethyl)phenyl)cyclobutyl 3-((2-(methylsulfonyl)ethyl)carbamoyl)but-3-enoate] | 18 | 11.3 | 
29 | C=C(Cc1nc(C2(c3ccc(SC(F)(F)F)cc3)CC2)no1)C(=O)NCC(=O)O [Example 27, (2-((3-(1-(4-((trifluoromethyl)thio)phenyl)cyclopropyl)-1,2,4-oxadiazol-5-yl)methyl)acryloyl)glycine] | 9.5 | > 100 | Emax [2, 4]: 20%; Emax [2, 5]: 26%; EC50 [2, 6]: > 100 µM; EC50 ([2]; −GSH): > 100 µM
30 | C=C(CC(=O)OC1(c2ccc(C(F)(F)F)cc2)CCC1)C(=O)NCC(=O)O [Example 29, (2-methylene-4-oxo-4-(1-(4-(trifluoromethyl)phenyl)cyclobutoxy)butanoyl) glycine] | > 100 | > 31.6 | 

— patent US20240335451A1, “ACRYLAMIDE DERIVATIVES USEFUL AS ANTI-INFLAMMATORY AGENTS” (Sitryx Therapeutics Limited, priority 2021, published 2024)
